Measured values as given in ChEMBL document CHEMBL3227970, “The benzodiazepine story” (J Med Chem, 1979).
Several values for one entry are separate records, joined by “and”; a condition that tells them apart may be missing. Equal entries are not always repeated. Activity calls are given as the source filed them. No cut-off for these calls is given here.

Legend:
Mus musculus [1] = experiment: Anticonvulsant activity in po dosed mouse assessed as reduction of pentylenetetrazole-induced seizures; format: functional
Mus musculus [2] = experiment: Induction of muscle relaxation/sedation in po dosed mouse by inclined screen test; format: functional
Mus musculus [3] = species on record: Mus musculus; experiment: Toxicity in mouse; format: organism-based; settings: in vivo
Mus musculus [4] = experiment: Anticonvulsant activity in po dosed mouse assessed as reduction of minimal electroshock-induced seizures; format: functional
Mus musculus [5] = experiment: Anticonvulsant activity in po dosed mouse assessed as reduction of maximal electroshock-induced seizures; format: functional
Mus musculus [6] = species on record: Mus musculus; experiment: Toxicity in mouse assessed as effect on central nervous system; format: organism-based; settings: in vivo
Rhesus monkey = experiment: Induction of taming effect in monkey by foot shock method; format: functional, organism-based; settings: Macaca mulatta
Mus musculus [7] = experiment: Induction of taming effect in po dosed mouse by foot shock method; format: functional
Felis catus = experiment: Muscle relaxing activity in po dosed cat; format: functional

With `CNC1=Nc2ccc(Cl)cc2C(c2ccccc2)=[N+]([O-])C1.Cl` [CHLORDIAZEPOXIDE HYDROCHLORIDE] the Activity (Mus musculus [1]) was 18 mg/kg, the Activity (Mus musculus [2]) was 100 mg/kg and the Activity (Mus musculus [3]) was 620 mg/kg. The Activity (Mus musculus [4]) was 150 mg/kg, the Activity (Mus musculus [5]) was 92 mg/kg and the Activity (Mus musculus [6]) was “Non-toxic”. For the same molecule, the Activity (Rhesus monkey) was “Active”, the Activity (Mus musculus [7]) was 40 mg/kg and the Activity (Felis catus) was 2 mg/kg.

In the case of `CN1C(=O)CN=C(c2ccccc2)c2cc(Cl)ccc21` [DIAZEPAM], the Activity (Mus musculus [2]) was 75 mg/kg and 30 mg/kg.

With `COC(=O)[C@H]1[C@H]2C[C@@H]3c4[nH]c5cc(OC)ccc5c4CCN3C[C@H]2C[C@@H](OC(=O)c2cc(OC)c(OC)c(OC)c2)[C@@H]1OC` [RESERPINE] the Activity (Mus musculus [6]) was “Toxic”.

In the case of `CCCC(C)(COC(N)=O)COC(N)=O` [MEPROBAMATE], the Activity (Mus musculus [1]) was 150 mg/kg, the Activity (Mus musculus [2]) was 250 mg/kg and the Activity (Mus musculus [4]) was 167 mg/kg. The Activity (Mus musculus [5]) was 200 mg/kg, the Activity (Mus musculus [7]) was 250 mg/kg and the Activity (Felis catus) was 100 mg/kg.

`CN(C)CCCN1c2ccccc2Sc2ccc(Cl)cc21` [CHLORPROMAZINE] showed an Activity (Mus musculus [1]) of 42 mg/kg, an Activity (Mus musculus [2]) of 17 mg/kg and an Activity (Mus musculus [4]) of 600 mg/kg. For the same molecule, the Activity (Mus musculus [5]) was 150 mg/kg, the Activity (Mus musculus [6]) was “Toxic” and the Activity (Mus musculus [7]) was 20 mg/kg. It also gave an Activity (Felis catus) of 2.5 mg/kg.

Molecule `O=C1C[N+]([O-])=C(c2ccccc2)c2cc(Cl)ccc2N1` [DEMOXEPAM] has an Activity (Mus musculus [1]) of 15 mg/kg, an Activity (Mus musculus [2]) of 100 mg/kg and an Activity (Mus musculus [4]) of 150 mg/kg. The Activity (Mus musculus [5]) was 150 mg/kg, the Activity (Mus musculus [7]) was 20 mg/kg and the Activity (Felis catus) was 2 mg/kg.

With `CCC1(c2ccccc2)C(=O)NC(=O)NC1=O` [PHENOBARBITAL] the Activity (Mus musculus [1]) was 75 mg/kg, the Activity (Mus musculus [2]) was 120 mg/kg and the Activity (Mus musculus [4]) was 90 mg/kg. For the same molecule, the Activity (Mus musculus [5]) was 18 mg/kg, the Activity (Mus musculus [7]) was 80 mg/kg and the Activity (Felis catus) was 10 mg/kg.
